Test results from article PMC3445516 (PLoS ONE, 2012).

Key:
Assay in all cases: Ambit kinase profiling, competition binding
SgK085 = molecular target: T1, SgK085 (Homo sapiens, UniProt Q86YV6); conditions: compound concentration 10 uM, read-out: Percent Competition
T1 construct: purchased Ambit Biosciences (KINOMEscan)
Text: (§1) Supplement pone.0044653.s004.xls, sheet "Compound 122" | column: Percent Competition

ERBB2 = molecular target: T2, ERBB2 (Homo sapiens, UniProt P04626); conditions: compound concentration 10 uM, read-out: Percent Competition
T2 construct: purchased Ambit Biosciences (KINOMEscan)
Text: as §1

PIM3 = molecular target: T3, PIM3 (Homo sapiens, UniProt Q86V86); conditions: compound concentration 10 uM, read-out: Percent Competition
T3 construct: purchased Ambit Biosciences (KINOMEscan)
Text: as §1

PHKG1 = molecular target: T4, PHKG1 (Homo sapiens, UniProt Q16816); conditions: compound concentration 10 uM, read-out: Percent Competition
T4 construct: purchased Ambit Biosciences (KINOMEscan)
Text: as §1

LTK = molecular target: T5, LTK (Homo sapiens, UniProt P29376); conditions: compound concentration 10 uM, read-out: Percent Competition
T5 construct: purchased Ambit Biosciences (KINOMEscan)
Text: as §1

[1] = molecular target: T6, RPS6KA5(Kin.Dom.2-C-terminal) (Homo sapiens, UniProt O75582); conditions: compound concentration 10 uM, read-out: Percent Competition
T6 construct: RPS6KA5(Kin.Dom.2-C-terminal); purchased Ambit Biosciences (KINOMEscan)
Text: as §1

BRK = molecular target: T7, BRK (Homo sapiens, UniProt Q13882); conditions: compound concentration 10 uM, read-out: Percent Competition
T7 construct: purchased Ambit Biosciences (KINOMEscan)
Text: as §1

[2] = molecular target: T8, TYK2(JH1domain-catalytic) (Homo sapiens, UniProt P29597); conditions: compound concentration 10 uM
T8 construct: TYK2(JH1domain-catalytic); purchased Ambit Biosciences (KINOMEscan)
Text: as §1

GCN2(Kin.Dom.2,S808G) = molecular target: T9, GCN2(Kin.Dom.2,S808G) (Homo sapiens, UniProt Q9P2K8, S808G); conditions: compound concentration 10 uM, read-out: Percent Competition
T9 construct: GCN2(Kin.Dom.2,S808G); purchased Ambit Biosciences (KINOMEscan)
Text: as §1

BRSK1 = molecular target: T10, BRSK1 (Homo sapiens, UniProt Q8TDC3); conditions: compound concentration 10 uM, read-out: Percent Competition
T10 construct: purchased Ambit Biosciences (KINOMEscan)
Text: as §1

PRKG2 = molecular target: T11, PRKG2 (Homo sapiens, UniProt Q13237); conditions: compound concentration 10 uM, read-out: Percent Competition
T11 construct: purchased Ambit Biosciences (KINOMEscan)
Text: as §1

FGR = molecular target: T12, FGR (Homo sapiens, UniProt P09769); conditions: compound concentration 10 uM, read-out: Percent Competition
T12 construct: purchased Ambit Biosciences (KINOMEscan)
Text: as §1

[3] = molecular target: T13, RPS6KA6(Kin.Dom.1-N-terminal) (Homo sapiens, UniProt Q9UK32); conditions: compound concentration 10 uM
T13 construct: RPS6KA6(Kin.Dom.1-N-terminal); purchased Ambit Biosciences (KINOMEscan)
Text: as §1

MLCK = molecular target: T14, MLCK (Homo sapiens, UniProt Q32MK0); conditions: compound concentration 10 uM, read-out: Percent Competition
T14 construct: purchased Ambit Biosciences (KINOMEscan)
Text: as §1

MLK2 = molecular target: T15, MLK2 (Homo sapiens, UniProt Q02779); conditions: compound concentration 10 uM, read-out: Percent Competition
T15 construct: purchased Ambit Biosciences (KINOMEscan)
Text: as §1

RIPK1 = molecular target: T16, RIPK1 (Homo sapiens, UniProt Q13546); conditions: compound concentration 10 uM, read-out: Percent Competition
T16 construct: purchased Ambit Biosciences (KINOMEscan)
Text: as §1

AMPK-alpha1 = molecular target: T17, AMPK-alpha1 (Homo sapiens, UniProt Q13131); conditions: compound concentration 10 uM, read-out: Percent Competition
T17 construct: purchased Ambit Biosciences (KINOMEscan)
Text: as §1

EPHA4 = molecular target: T18, EPHA4 (Homo sapiens, UniProt P54764); conditions: compound concentration 10 uM, read-out: Percent Competition
T18 construct: purchased Ambit Biosciences (KINOMEscan)
Text: as §1

PKMYT1 = molecular target: T19, PKMYT1 (Homo sapiens, UniProt Q99640); conditions: compound concentration 10 uM
T19 construct: purchased Ambit Biosciences (KINOMEscan)
Text: as §1

MELK = molecular target: T20, MELK (Homo sapiens, UniProt Q14680); conditions: compound concentration 10 uM, read-out: Percent Competition
T20 construct: purchased Ambit Biosciences (KINOMEscan)
Text: as §1

SIK2 = molecular target: T21, SIK2 (Homo sapiens, UniProt Q9H0K1); conditions: compound concentration 10 uM, read-out: Percent Competition
T21 construct: purchased Ambit Biosciences (KINOMEscan)
Text: as §1

PIM1 = molecular target: T22, PIM1 (Homo sapiens, UniProt P11309); conditions: compound concentration 10 uM, read-out: Percent Competition
T22 construct: purchased Ambit Biosciences (KINOMEscan)
Text: as §1

TSSK1B = molecular target: T23, TSSK1B (Homo sapiens, UniProt Q9BXA7); conditions: compound concentration 10 uM, read-out: Percent Competition
T23 construct: purchased Ambit Biosciences (KINOMEscan)
Text: as §1

ULK1 = molecular target: T24, ULK1 (Homo sapiens, UniProt O75385); conditions: compound concentration 10 uM
T24 construct: purchased Ambit Biosciences (KINOMEscan)
Text: as §1

[4] = molecular target: T25, RPS6KA2(Kin.Dom.1-N-terminal) (Homo sapiens, UniProt Q15349); conditions: compound concentration 10 uM, read-out: Percent Competition
T25 construct: RPS6KA2(Kin.Dom.1-N-terminal); purchased Ambit Biosciences (KINOMEscan)
Text: as §1

BRSK2 = molecular target: T26, BRSK2 (Homo sapiens, UniProt Q8IWQ3); conditions: compound concentration 10 uM, read-out: Percent Competition
T26 construct: purchased Ambit Biosciences (KINOMEscan)
Text: as §1

FGFR4 = molecular target: T27, FGFR4 (Homo sapiens, UniProt P22455); conditions: compound concentration 10 uM, read-out: Percent Competition
T27 construct: purchased Ambit Biosciences (KINOMEscan)
Text: as §1

ABL1(Y253F) = molecular target: T28, ABL1(Y253F) (Homo sapiens, UniProt P00519, Y253F); conditions: compound concentration 10 uM, read-out: Percent Competition
T28 construct: purchased Ambit Biosciences (KINOMEscan)
Text: as §1

MAP3K4 = molecular target: T29, MAP3K4 (Homo sapiens, UniProt Q9Y6R4); conditions: compound concentration 10 uM, read-out: Percent Competition
T29 construct: purchased Ambit Biosciences (KINOMEscan)
Text: as §1

EPHB2 = molecular target: T30, EPHB2 (Homo sapiens, UniProt P29323); conditions: compound concentration 10 uM
T30 construct: purchased Ambit Biosciences (KINOMEscan)
Text: as §1

FLT3(N841I) = molecular target: T31, FLT3(N841I) (Homo sapiens, UniProt P36888, N841I); conditions: compound concentration 10 uM, read-out: Percent Competition
T31 construct: purchased Ambit Biosciences (KINOMEscan)
Text: as §1

[5] = molecular target: T32, RPS6KA1(Kin.Dom.1-N-terminal) (Homo sapiens, UniProt Q15418); conditions: compound concentration 10 uM, read-out: Percent Competition
T32 construct: RPS6KA1(Kin.Dom.1-N-terminal); purchased Ambit Biosciences (KINOMEscan)
Text: as §1

ABL1(T315I) = molecular target: T33, ABL1(T315I) (Homo sapiens, UniProt P00519, T315I); conditions: compound concentration 10 uM, read-out: Percent Competition
T33 construct: purchased Ambit Biosciences (KINOMEscan)
Text: as §1

PKN1 = molecular target: T34, PKN1 (Homo sapiens, UniProt Q16512); conditions: compound concentration 10 uM, read-out: Percent Competition
T34 construct: purchased Ambit Biosciences (KINOMEscan)
Text: as §1

MAP3K3 = molecular target: T35, MAP3K3 (Homo sapiens, UniProt Q99759); conditions: compound concentration 10 uM, read-out: Percent Competition
T35 construct: purchased Ambit Biosciences (KINOMEscan)
Text: as §1

AXL = molecular target: T36, AXL (Homo sapiens, UniProt P30530); conditions: compound concentration 10 uM, read-out: Percent Competition
T36 construct: purchased Ambit Biosciences (KINOMEscan)
Text: as §1

ZAP70 = molecular target: T37, ZAP70 (Homo sapiens, UniProt P43403); conditions: compound concentration 10 uM, read-out: Percent Competition
T37 construct: purchased Ambit Biosciences (KINOMEscan)
Text: as §1

CDKL2 = molecular target: T38, CDKL2 (Homo sapiens, UniProt Q92772); conditions: compound concentration 10 uM, read-out: Percent Competition
T38 construct: purchased Ambit Biosciences (KINOMEscan)
Text: as §1

- inhibition at 10 µM (SgK085): < 50%
- inhibition at 10 µM (ERBB2): < 50%
- inhibition at 10 µM (PIM3): < 50%
- inhibition at 10 µM (PHKG1): < 50%
- inhibition at 10 µM (LTK): < 50%
- inhibition at 10 µM [1]: < 50%
- inhibition at 10 µM (BRK): < 50%
- Percent Competition [2]: <50%
- inhibition at 10 µM (GCN2(Kin.Dom.2,S808G)): < 50%
- inhibition at 10 µM (BRSK1): < 50%
- inhibition at 10 µM (PRKG2): < 50%
- inhibition at 10 µM (FGR): < 50%
- Percent Competition [3]: <50%
- inhibition at 10 µM (MLCK): < 50%
- inhibition at 10 µM (MLK2): < 50%
- inhibition at 10 µM (RIPK1): < 50%
- inhibition at 10 µM (AMPK-alpha1): < 50%
- inhibition at 10 µM (EPHA4): < 50%
- Percent Competition (PKMYT1): <50%
- inhibition at 10 µM (MELK): < 50%
- inhibition at 10 µM (SIK2): < 50%
- inhibition at 10 µM (PIM1): < 50%
- inhibition at 10 µM (TSSK1B): < 50%
- Percent Competition (ULK1): <50%
- inhibition at 10 µM [4]: < 50%
- inhibition at 10 µM (BRSK2): < 50%
- inhibition at 10 µM (FGFR4): < 50%
- inhibition at 10 µM (ABL1(Y253F)): < 50%
- inhibition at 10 µM (MAP3K4): < 50%
- Percent Competition (EPHB2): <50%
- inhibition at 10 µM (FLT3(N841I)): < 50%
- inhibition at 10 µM [5]: < 50%
- inhibition at 10 µM (ABL1(T315I)): < 50%
- inhibition at 10 µM (PKN1): < 50%
- inhibition at 10 µM (MAP3K3): < 50%
- inhibition at 10 µM (AXL): < 50%
- inhibition at 10 µM (ZAP70): < 50%
- inhibition at 10 µM (CDKL2): < 50%
Structure (SMILES): Fc1ccc(-c2c(-c3ccncc3)[nH]c3nccnc23)cc1 [RO1155697-000-005]
